How the values were obtained:
[1] = test system: aptamer 1.12.2 (DNA, aptamer) GATCGGGTGTGGGTGGCGTAAAGGGAGCATCGGACA; test: fluorescence anisotropy titration; settings: 100 mM Na+ (acetate), 10 mM MgCl2, 10 mM CaCl2; 20 mM Tris-acetate pH 8.4, room temperature
[2] = test system: Mut2 (DNA, aptamer) GATCGGGTGTGGGTGGCGTAAAGGGAGCATCGG; test: fluorescence anisotropy titration; settings: 100 mM Na+ (acetate), 10 mM MgCl2, 10 mM CaCl2; 20 mM Tris-acetate pH 8.4, room temperature
[3] = test system: aptamer 1.12.2 (DNA, aptamer) GATCGGGTGTGGGTGGCGTAAAGGGAGCATCGGACA; test: ITC; settings: 100 mM Na+ (acetate), 10 mM MgCl2, 10 mM CaCl2; 20 mM Tris-acetate pH 8.4, 25 °C; one-site model
[4] = test system: aptamer–ssDNA {6–15} complex (DNA, duplex) GATCGGGTGTGGGTGGCGTAAAGGGAGCATCGGACA/CACCCACACC; test: circular dichroism; settings: 100 mM Na+ (acetate), 10 mM MgCl2, 10 mM CaCl2; 20 mM Tris-acetate pH 8.4, room temperature; 1 µM complex, up to 10 µM OTA
[5] = test system: aptamer 1.12.2 (DNA, aptamer) GATCGGGTGTGGGTGGCGTAAAGGGAGCATCGGACA; test: fluorescence anisotropy competition; settings: 100 mM Na+ (acetate), 10 mM MgCl2, 10 mM CaCl2, 20 mM Tris-acetate pH 8.4, 90 nM aptamer

| Structure (SMILES) | KD [1] [nM] | KD [2] [nM] | KD [3] [nM] | binding [4] | L50 ([5]; tracer 5 nM OTA-Flu displaced) [nM] | KI ([5]; tracer OTA-Flu displaced) [nM] |
| --- | --- | --- | --- | --- | --- | --- |
| C[C@@H]1Cc2c(Cl)cc(C(=O)N[C@@H](Cc3ccccc3)C(=O)NCc3c(O)ccc4c3Oc3cc(O)ccc3C43OC(=O)c4ccccc43)c(O)c2C(=O)O1 (stereo partly drawn) | 183 ± 14 | 192 |  |  |  |  |
| C[C@@H]1Cc2c(Cl)cc(C(=O)N[C@@H](Cc3ccccc3)C(=O)O)c(O)c2C(=O)O1 |  |  | 131 ± 32 | no | 106.2 ± 6.4 | 36.3 ± 2.1 |

— PMC9103105 (2022)
